Laboratory results: ChEMBL document CHEMBL1255216, “Exploration of the amine terminus in a novel series of 1,2,4-triazolo-3-yl-azabicyclo[3.1.0]hexanes as selective dopamine D3 receptor antagonists” (J Med Chem, 2010)

What was measured:
D(2) dopamine receptor = D(2) dopamine receptor (Homo sapiens, UniProt P14416); assay: Antagonist activity at human dopamine D2L receptor expressed in CHO cells assessed as inhibition of quinelorane-induced [35S]GTPgammaS binding; assay type: functional, cell-based
D(3) dopamine receptor = D(3) dopamine receptor (Homo sapiens, UniProt P35462); assay: Antagonist activity at human dopamine D3 expressed in CHO cells assessed as inhibition of quinelorane-induced [35S]GTPgammaS binding; assay type: functional, cell-based
[1] = target: Voltage-gated inwardly rectifying potassium channel KCNH2 (Homo sapiens, UniProt Q12809)
Cytochrome P450 2C19 = Cytochrome P450 2C19 (Homo sapiens, UniProt P33261)
Description: Inhibition of human CYP2C19

Liver microsomes [2] = settings: rat, 0.5 h, 0.5 µM
Cytochrome P450 3A4 = Cytochrome P450 3A4 (Homo sapiens, UniProt P08684)
Description: Inhibition of human CYP3A4

Cytochrome P450 2D6 = Cytochrome P450 2D6 (Homo sapiens, UniProt P10635)
Description: Inhibition of human CYP2D6

Cytochrome P450 1A2 = target: T1, Cytochrome P450 1A2 (Homo sapiens, UniProt P05177)
T1 sequence (P05177 whole entry): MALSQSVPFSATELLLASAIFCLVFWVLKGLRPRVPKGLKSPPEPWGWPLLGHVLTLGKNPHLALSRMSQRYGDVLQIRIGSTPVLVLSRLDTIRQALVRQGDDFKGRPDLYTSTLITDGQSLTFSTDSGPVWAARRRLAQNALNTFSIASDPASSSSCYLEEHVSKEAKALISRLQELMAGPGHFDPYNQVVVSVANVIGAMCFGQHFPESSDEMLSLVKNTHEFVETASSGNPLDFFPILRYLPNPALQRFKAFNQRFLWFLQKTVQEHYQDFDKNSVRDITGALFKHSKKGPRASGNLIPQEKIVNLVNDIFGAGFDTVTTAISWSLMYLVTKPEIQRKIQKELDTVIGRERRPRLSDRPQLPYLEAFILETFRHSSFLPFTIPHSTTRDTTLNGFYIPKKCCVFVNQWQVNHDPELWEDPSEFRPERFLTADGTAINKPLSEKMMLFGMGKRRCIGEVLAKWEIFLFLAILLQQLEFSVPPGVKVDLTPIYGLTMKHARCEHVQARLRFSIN
Description: Inhibition of human CYP1A2

Cytochrome P450 2C9 = Cytochrome P450 2C9 (Homo sapiens, UniProt P11712)
Description: Inhibition of human CYP2C9

Liver microsomes [3] = settings: human, 0.5 h, 0.5 µM

Sequence of Voltage-gated inwardly rectifying potassium channel KCNH2 (Q12809 whole entry): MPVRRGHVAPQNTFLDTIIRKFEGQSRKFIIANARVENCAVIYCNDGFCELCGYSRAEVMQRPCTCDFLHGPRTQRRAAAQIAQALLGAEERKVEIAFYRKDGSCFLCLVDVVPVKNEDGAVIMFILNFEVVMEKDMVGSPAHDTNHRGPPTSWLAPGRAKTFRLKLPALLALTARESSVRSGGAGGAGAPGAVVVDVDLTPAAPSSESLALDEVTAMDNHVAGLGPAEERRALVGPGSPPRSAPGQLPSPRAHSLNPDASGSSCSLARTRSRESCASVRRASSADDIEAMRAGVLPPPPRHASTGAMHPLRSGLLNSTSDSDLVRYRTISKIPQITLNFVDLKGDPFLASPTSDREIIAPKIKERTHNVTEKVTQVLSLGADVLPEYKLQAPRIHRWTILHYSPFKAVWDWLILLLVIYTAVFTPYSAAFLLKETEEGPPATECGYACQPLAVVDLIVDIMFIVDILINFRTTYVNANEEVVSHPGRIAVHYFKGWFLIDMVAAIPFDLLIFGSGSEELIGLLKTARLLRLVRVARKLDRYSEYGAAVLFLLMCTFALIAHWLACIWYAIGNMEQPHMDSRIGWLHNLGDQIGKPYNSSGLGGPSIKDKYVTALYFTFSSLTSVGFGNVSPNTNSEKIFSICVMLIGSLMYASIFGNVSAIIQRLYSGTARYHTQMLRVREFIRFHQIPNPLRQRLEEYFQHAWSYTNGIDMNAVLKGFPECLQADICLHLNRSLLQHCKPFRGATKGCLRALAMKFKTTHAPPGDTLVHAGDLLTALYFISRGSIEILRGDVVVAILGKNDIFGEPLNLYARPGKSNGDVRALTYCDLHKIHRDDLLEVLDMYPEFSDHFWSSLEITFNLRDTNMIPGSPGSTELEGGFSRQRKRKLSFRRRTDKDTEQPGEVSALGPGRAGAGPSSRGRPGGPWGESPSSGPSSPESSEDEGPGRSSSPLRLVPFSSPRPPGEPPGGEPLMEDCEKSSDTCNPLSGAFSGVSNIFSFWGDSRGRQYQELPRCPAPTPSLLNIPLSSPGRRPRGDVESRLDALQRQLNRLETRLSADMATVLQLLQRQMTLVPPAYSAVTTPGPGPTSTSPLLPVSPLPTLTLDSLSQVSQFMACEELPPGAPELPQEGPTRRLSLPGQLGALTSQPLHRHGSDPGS
Sequence of D(3) dopamine receptor (P35462 whole entry): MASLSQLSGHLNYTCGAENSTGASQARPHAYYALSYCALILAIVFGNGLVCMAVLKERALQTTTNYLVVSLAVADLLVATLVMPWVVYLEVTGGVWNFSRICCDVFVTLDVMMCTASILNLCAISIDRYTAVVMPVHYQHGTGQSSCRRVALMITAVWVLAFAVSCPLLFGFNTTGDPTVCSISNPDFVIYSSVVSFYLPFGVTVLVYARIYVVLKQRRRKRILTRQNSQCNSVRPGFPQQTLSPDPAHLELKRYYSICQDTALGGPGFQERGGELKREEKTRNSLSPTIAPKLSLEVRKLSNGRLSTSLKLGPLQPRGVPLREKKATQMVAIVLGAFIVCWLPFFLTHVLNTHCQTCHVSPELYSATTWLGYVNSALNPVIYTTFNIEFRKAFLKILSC
Sequence of D(2) dopamine receptor (P14416 whole entry): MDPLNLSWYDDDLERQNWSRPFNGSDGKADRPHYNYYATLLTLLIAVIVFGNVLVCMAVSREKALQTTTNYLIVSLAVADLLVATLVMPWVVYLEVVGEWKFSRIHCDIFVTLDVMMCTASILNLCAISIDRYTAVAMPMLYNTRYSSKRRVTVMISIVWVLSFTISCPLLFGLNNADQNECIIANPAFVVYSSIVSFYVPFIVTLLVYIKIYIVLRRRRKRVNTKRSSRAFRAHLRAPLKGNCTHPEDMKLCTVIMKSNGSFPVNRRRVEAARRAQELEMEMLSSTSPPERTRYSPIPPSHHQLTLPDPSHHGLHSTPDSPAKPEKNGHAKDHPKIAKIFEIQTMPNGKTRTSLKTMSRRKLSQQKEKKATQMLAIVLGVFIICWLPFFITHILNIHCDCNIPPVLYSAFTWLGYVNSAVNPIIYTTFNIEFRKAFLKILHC
Sequence of Cytochrome P450 3A4 (P08684 whole entry): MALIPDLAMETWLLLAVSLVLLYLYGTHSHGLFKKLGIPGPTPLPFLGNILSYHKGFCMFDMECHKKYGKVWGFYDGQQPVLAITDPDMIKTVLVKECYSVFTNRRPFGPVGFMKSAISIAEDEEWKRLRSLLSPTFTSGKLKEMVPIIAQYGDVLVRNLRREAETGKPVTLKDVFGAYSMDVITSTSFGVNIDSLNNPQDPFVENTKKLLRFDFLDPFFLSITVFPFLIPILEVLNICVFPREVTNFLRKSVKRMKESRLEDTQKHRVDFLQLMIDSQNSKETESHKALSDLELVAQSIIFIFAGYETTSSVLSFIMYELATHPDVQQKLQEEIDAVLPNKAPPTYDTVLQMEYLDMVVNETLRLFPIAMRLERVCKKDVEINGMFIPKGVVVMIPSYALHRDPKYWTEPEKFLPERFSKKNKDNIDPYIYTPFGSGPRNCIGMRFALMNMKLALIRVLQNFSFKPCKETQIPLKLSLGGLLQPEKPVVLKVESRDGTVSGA
Sequence of Cytochrome P450 2C9 (P11712 whole entry): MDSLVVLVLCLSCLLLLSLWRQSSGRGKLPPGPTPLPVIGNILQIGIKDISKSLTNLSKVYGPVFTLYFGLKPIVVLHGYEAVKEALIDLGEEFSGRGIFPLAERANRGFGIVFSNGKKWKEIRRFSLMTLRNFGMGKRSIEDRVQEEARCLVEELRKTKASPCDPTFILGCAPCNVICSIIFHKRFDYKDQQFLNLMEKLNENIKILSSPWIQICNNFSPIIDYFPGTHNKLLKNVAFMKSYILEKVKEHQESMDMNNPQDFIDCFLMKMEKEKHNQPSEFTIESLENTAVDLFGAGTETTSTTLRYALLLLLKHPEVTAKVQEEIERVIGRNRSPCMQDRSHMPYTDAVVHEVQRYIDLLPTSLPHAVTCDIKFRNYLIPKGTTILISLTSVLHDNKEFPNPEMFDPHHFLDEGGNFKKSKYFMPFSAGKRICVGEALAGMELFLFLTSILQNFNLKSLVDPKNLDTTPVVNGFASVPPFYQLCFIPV
Sequence of Cytochrome P450 2C19 (P33261 whole entry): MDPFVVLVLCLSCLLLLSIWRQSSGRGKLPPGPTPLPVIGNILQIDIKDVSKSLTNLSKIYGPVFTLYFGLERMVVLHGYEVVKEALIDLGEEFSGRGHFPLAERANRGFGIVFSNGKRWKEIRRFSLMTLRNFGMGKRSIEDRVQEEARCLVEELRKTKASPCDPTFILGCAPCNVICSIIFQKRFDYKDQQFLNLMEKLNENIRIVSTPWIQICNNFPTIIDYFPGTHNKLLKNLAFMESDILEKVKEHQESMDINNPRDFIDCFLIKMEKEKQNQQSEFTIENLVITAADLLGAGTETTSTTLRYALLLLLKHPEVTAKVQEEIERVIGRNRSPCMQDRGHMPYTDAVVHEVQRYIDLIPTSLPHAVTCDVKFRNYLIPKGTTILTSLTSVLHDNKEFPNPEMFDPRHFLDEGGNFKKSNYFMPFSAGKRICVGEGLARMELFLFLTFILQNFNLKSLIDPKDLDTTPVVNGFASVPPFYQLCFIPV
Sequence of Cytochrome P450 2D6 (P10635 whole entry): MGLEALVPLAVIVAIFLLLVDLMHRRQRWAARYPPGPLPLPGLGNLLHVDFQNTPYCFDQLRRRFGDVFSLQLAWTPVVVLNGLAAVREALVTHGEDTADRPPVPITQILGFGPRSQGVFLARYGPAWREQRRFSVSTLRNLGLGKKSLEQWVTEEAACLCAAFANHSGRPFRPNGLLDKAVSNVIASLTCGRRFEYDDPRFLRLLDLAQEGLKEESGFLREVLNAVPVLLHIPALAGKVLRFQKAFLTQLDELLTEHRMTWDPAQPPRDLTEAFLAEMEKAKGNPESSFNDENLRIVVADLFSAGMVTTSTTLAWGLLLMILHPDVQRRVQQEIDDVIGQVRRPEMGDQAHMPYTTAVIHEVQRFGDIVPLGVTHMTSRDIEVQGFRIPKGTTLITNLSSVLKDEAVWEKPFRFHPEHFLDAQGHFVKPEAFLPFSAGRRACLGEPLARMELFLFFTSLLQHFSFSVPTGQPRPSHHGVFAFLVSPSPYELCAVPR

Ki (D(2) dopamine receptor) | Ki (D(3) dopamine receptor) | SMILES | also measured
501 nM | 7.94 nM | Cc1ncoc1-c1nnc(SCCCN2CCC3CC3(c3ccc(C(F)(F)F)cc3)C2)n1C (centres undefined) | IC50 [1]: 2000 nM
– | 39.8 nM | Cc1ncoc1-c1nnc(SCCCN2CCC3(c4ccc(C(F)(F)F)cc4)CC3C2)n1C (centres undefined) | –
100 nM | 158 nM | Cc1ncoc1-c1nnc(SCCCN2CCC3(CCc4cc(F)ccc43)C2)n1C (centres undefined) | –
> 3160 nM | 100 nM | Cc1ncoc1-c1nnc(SCCCN2CCC3(CCOc4ccccc43)C2)n1C (centres undefined) | –
– | 10 nM | Cc1nc(C)c(-c2nnc(SCCCN3CCC4CC4(c4ccc(C(F)(F)F)cc4)CC3)n2C)o1 (centres undefined) | –
398 nM | 50.1 nM | Cc1nc(C)c(-c2nnc(SCCCN3CCC4(CCc5ccc(F)cc54)C3)n2C)s1 (centres undefined) | IC50 [1]: 6310 nM
1000 nM | 100 nM | COc1ccc2c(c1)CCCC21CCN(CCCSc2nnc(-c3ocnc3C)n2C)C1 (centres undefined) | –
> 3160 nM | 31.6 nM | Cc1ncoc1-c1nnc(SCCCN[C@@H]2CC3C[C@]3(c3ccc(C(F)(F)F)cc3F)C2)n1C (some centres undefined) | –
316 nM | 15.8 nM | Cc1ncoc1-c1nnc(SCCCN2CCC3(CCCc4ccc(Br)cc43)C2)n1C (centres undefined) | –
– | 158 nM | Cc1ncoc1-c1nnc(SCCCN2CCC3(c4ccccc4)CC3C2)n1C (centres undefined) | –
251 nM | 50.1 nM | Cc1ncoc1-c1nnc(SCCCNC2CC3CC3(c3ccccc3)C2)n1C (centres undefined) | –
200 nM | 3.98 nM | Cc1nc(C)c(-c2nnc(SCCCN3CCC4CC4(c4ccc(C(F)(F)F)cc4)CC3)n2C)s1 (centres undefined) | IC50 [1]: 631 nM
126 nM | 5.01 nM | Cc1ncoc1-c1nnc(SCCCN2CCC3(CCc4cc(Br)ccc43)C2)n1C (centres undefined) | –
398 nM | 3.98 nM | Cn1c(SCCCN2CCC3CC3(c3ccc(C(F)(F)F)cc3)CC2)nnc1-c1ccnnc1 (centres undefined) | –
– | 12.6 nM | Cc1ncoc1-c1nnc(SCCCN2CCC3CC3(c3cccc(C(F)(F)F)c3)C2)n1C (centres undefined) | –
– | – | CCOc1ccc2c(c1)Oc1cc(OCC)ccc1C21OC(=O)c2ccccc21 [DIETHOXYFLOURESCEIN] | IC50 (Cytochrome P450 3A4): 1000 nM
100 nM | 3.98 nM | Cc1ncoc1-c1nnc(SCCCN2CCC3CC3(c3ccc(C(F)(F)F)cc3)CC2)n1C (centres undefined) | –
398 nM | 126 nM | Cc1ncoc1-c1nnc(SCCCN2CCC3CC3(c3ccccc3)C2)n1C (centres undefined) | –
251 nM | 7.94 nM | Cc1ncoc1-c1nnc(SCCCN2CCC3(CCc4c(Br)cccc43)C2)n1C (centres undefined) | –
398 nM | 31.6 nM | Cc1nc(C)c(-c2nnc(SCCCN3CCC4(CCc5cc(Cl)ccc54)C3)n2C)s1 (centres undefined) | IC50 [1]: 2510 nM
– | 7.94 nM | Cc1ncoc1-c1nnc(SCCCN2CCC3(CCCc4cc(Br)ccc43)C2)n1C (centres undefined) | –
200 nM | 3.16 nM | Cc1ncoc1-c1nnc(SCCCN[C@@H]2CC[C@]3(c4ccc(C(F)(F)F)cc4F)CC23)n1C (some centres undefined) | IC50 [1]: 631 nM
39.8 nM | 2.51 nM | Cc1ncoc1-c1nnc(SCCCN2CCC3(CCc4ccc(Br)cc43)C2)n1C (centres undefined) | –
2510 nM | 6.31 nM | Cc1ncoc1-c1nnc(SCCCN2CCC3(c4cccc(C(F)(F)F)c4)CC3C2)n1C (centres undefined) | –

SMILES | Ki (D(2) dopamine receptor) | Ki (D(3) dopamine receptor) | also measured
Cc1ncoc1-c1nnc(SCCCN[C@@H]2CC[C@]3(c4ccc(C(F)(F)F)cc4)CC23)n1C (stereo in doubt; 22) | > 3160 nM | 126 nM | IC50 [1]: 251 nM
Cc1ncoc1-c1nnc(SCCCNC2CC[C@]3(c4ccc(C(F)(F)F)cc4)CC23)n1C (single isomer, unassigned) | > 3160 nM | 251 nM | IC50 [1]: 2510 nM
Cc1ncoc1-c1nnc(SCCCN2[C@@H]3CC[C@H]2C[C@@H](c2ccc(C(F)(F)F)cc2)C3)n1C | 398 nM | 10 nM | –
Cc1ncoc1-c1nnc(SCCCN[C@@H]2CC[C@]3(c4ccc(C(F)(F)F)cc4)CC23)n1C (stereo in doubt; 24) | 501 nM | 3.98 nM | IC50 (Cytochrome P450 2C19): > 4000 nM; CL (Liver microsomes [2]): < 0.5 mL/min/g; IC50 (Cytochrome P450 3A4): > 4000 nM; IC50 (Cytochrome P450 2D6): > 4000 nM; IC50 (Cytochrome P450 1A2): > 4000 nM; IC50 (Cytochrome P450 2C9): > 4000 nM; IC50 [1]: 631 nM; CL (Liver microsomes [3]): < 0.5 mL/min/g
Cc1ncoc1-c1nnc(SCCCN2[C@@H]3CC[C@H]2C[C@@H](c2ccc(C(F)(F)F)cc2F)C3)n1C | > 3160 nM | 6.31 nM | –
COc1ccc2c(c1)C1(CCC2)CCN(CCCSc2nnc(-c3ocnc3C)n2C)C1 (centres undefined) | – | 31.6 nM | –
Cc1ncoc1-c1nnc(SCCCN2[C@@H]3CC[C@H]2C[C@@H](c2ccc(C(C)(C)C)cc2)C3)n1C | 398 nM | 0.631 nM | IC50 (Cytochrome P450 2C19): > 5000 nM; CL (Liver microsomes [2]): 7.9 mL/min/g; IC50 (Cytochrome P450 3A4): > 5000 nM; IC50 (Cytochrome P450 2D6): > 5000 nM; IC50 (Cytochrome P450 1A2): > 5000 nM; IC50 (Cytochrome P450 2C9): > 5000 nM; CL (Liver microsomes [3]): 0.9 mL/min/g
COc1cccc2c1CCCC21CCN(CCCSc2nnc(-c3ocnc3C)n2C)C1 (centres undefined) | 398 nM | 79.4 nM | –
